Read-outs that look alike come from different tables or passages of the source.
Experiments:
[1] = system: HIV1 strain NL4-3; type: cell-based; conditions: normalized mean of HIV1 replication readout
[2] = system: HCV replicon; type: cell-based; conditions: normalized mean of HCV replicon readout
[3] = system: F. novicida (strain U112); type: cell-based
[4] = system: influenza A H1N1 virus; conditions: 48 hr post-treatment, A549
[5] = system: EBV; conditions: normalized mean of EBV replication readout

Row | Substance | HIV1 Norm MEAN ([1]; peptide screen) | HCV Norm MEAN ([2]; peptide screen) | Francisella novicida Norm AUC [3] | Neuraminidase activity normalized to vehicle ([4]; 200 µM peptide) | Neuraminidase activity normalized to vehicle ([4]; 0,823 µM peptide) | Neuraminidase activity normalized to vehicle ([4]; 22,2 µM peptide) | Neuraminidase activity normalized to vehicle ([4]; 2,4691 µM peptide) | Neuraminidase activity normalized to vehicle ([4]; 7,4074 µM peptide) | Neuraminidase activity normalized to vehicle ([4]; 66,6667 µM peptide) | EBV Norm MEAN ([5]; peptide screen) | HIV1 Norm MEAN [1] | HCV Norm MEAN [2] | EBV Norm MEAN [5]
1 | AHQNSQTHQASLSKQ [CPEP43] | 0.3977 | 1.077 | 1.137 | 0,8034 | 0,7858 | 0,9843 | 0,876 | 0,8511 | 0,7841 | 0.682 | – | – | –
2 | CPEP99: peptide of the viral peptide library; sequence page not shown (SWESHKSGGETRL) | 0.6504 | 0.3379 | 1.1 | 1,0243 | 0,9063 | 1,004 | 0,994 | 0,9109 | 1,1024 | 0.7952 | – | – | –
3 | TYGTC [CPEP97] | – | – | 0.4338 | 0,8478 | 0,83 | 0,836 | 0,6842 | 0,8009 | 0,8711 | – | 0.8497 | 0.1345 | 1.147
4 | RYSKRRHGRR [CPEP118] | – | – | 1.247 | 0,7942 | 0,9639 | 0,7875 | 0,9014 | 0,7974 | 0,7776 | – | 1.129 | 0.2514 | 1.996
5 | LNSLF [CPEP143] | – | – | 1.175 | 0,8484 | 0,6928 | 0,8423 | 0,7636 | 0,8039 | 0,8807 | – | 0.7905 | 0.2751 | 1.147
6 | SAPCLLKLSTTLLCLEI [CPEP124] | 14.9843 | 1.253 | 0.6911 | 0,1059 | 1,0611 | 0,6181 | 0,9657 | 1,0354 | 0,1507 | 0.5543 | – | – | –
7 | GGLEPLSEKHFRETEV [CPEP112] | 0.2121 | 0.3447 | 1.082 | 1,0677 | 1,0673 | 1,1545 | 1,0388 | 1,1047 | 1,0264 | 0.8103 | – | – | –
8 | GARASVLS [CPEP108] | – | – | 1.458 | 0,7289 | 0,7112 | 0,9027 | 0,8479 | 0,9625 | 0,8429 | – | 0.3412 | 0.178 | 0.7452
9 | CPEP14: peptide of the viral peptide library; sequence page not shown (ILHTPGCVPCVR) | – | – | 1.22 | 0,9254 | 0,9272 | 1,0033 | 0,9392 | 0,9017 | 1,0554 | – | 0.4683 | 0.5608 | 1.5484
10 | EDLLNEPGQPLDLSC [CPEP104] | 0.2933 | 1.128 | 1.073 | 0,8372 | 0,8247 | 0,8954 | 0,9133 | 0,8771 | 0,8952 | 0.504 | – | – | –

Source: article PMC10835127, “Viruses traverse the human proteome through peptide interfaces that can be biomimetically leveraged for drug discovery” (Proceedings of the National Academy of Sciences of the …, 2024)
